Laboratory results reported in patent publication EP0531958A1, “6-Aminoquinolones, their synthesis and their use as antibacterial agents” (MEDIOLANUM FARMACEUTICI S.P.A., priority 1991, dated 1993).
Converted amounts (≈) assume the structure as drawn. Where two headings read alike, the source gives them in different places.

Key:
Type in all cases: cell-based
Gram + = assay: MIC test, average over the 5 gram-positive test germs; settings: 24 h
Protocol: (§1) As to the antibacterial activity, there was determined the Least (Minimum) Inhibiting Concentration (MIC), by working according to the following operative conditions.
(§2) There were used suspensions of test germs (5 gram-positive and 15 gram-negative) having a known titre, kept freezed at -80°C and diluted, at the time of use, in peptonized water up to a concentration of 1-2.10⁷ cfu/ml.
(§3) A few mg of the products, according to the invention were weighed sufficient for preparing parent solutions in DMSO + NaOH (1N) containing 2560 µg/ml (64µg/ml/dish). From the thus prepared parent solutions there were prepared 12 serial dilutions (1:2) down to the concentration of 1.25 µg/ml.
(§4) 0.5 ml of the different dilutions of each product were distributed on dishes containing 19.5 ml of agarized medium (TSA), maintained in a fluid state at the temperature of 50°C. After slight stirring, the dishes were made to solidify and dry under hood (laminar flow).
(§5) The MIC tests (Least or "Minimum" Inhibiting Concentration) were performed by using a Steers multiwell inoculator having 36 wells, each containing 200 µl of bacterial suspension.
(§6) After inoculation, the dishes were placed into a thermostat and checked after 24 h of incubation at 35°C.
(§7) The MIC is defined as the lowermost product concentration (µg/ml) inhibiting the visible growth of the microorganisms.

Gram - = assay: MIC test, average over the 15 gram-negative test germs; settings: 24 h
Protocol: as §1, §2, §3, §4, §5, §6, §7

[1] = test system: Acinebacter calcoloaceticus OSMPV 1130; assay: MIC test, agar dilution with Steers multiwell inoculator; settings: TSA dishes, 24 h at 35°C, read-out: Minimum Inhibiting Concentration
Protocol: as §1, §2, §3, §4, §5, §6, §7

[2] = test system: Escherichia coli ATCC 8739; assay: as above; settings: ATCC8739, TSA dishes, 24 h at 35°C, read-out: Minimum Inhibiting Concentration
Protocol: as §1, §2, §3, §4, §5, §6, §7

[3] = test system: Staphylococcus epidermidis CPHL A2; assay: as above; settings: CPHLA2, TSA dishes, 24 h at 35°C, read-out: Minimum Inhibiting Concentration
Protocol: as §1, §2, §3, §4, §5, §6, §7

[4] = test system: Pseudomonas aeruginosa ATCC 9027; assay: as above; settings: ATCC9027, TSA dishes, 24 h at 35°C, read-out: Minimum Inhibiting Concentration
Protocol: as §1, §2, §3, §4, §5, §6, §7

Escherichia coli ISF 432 = assay: as above; settings: ISF432, TSA dishes, 24 h at 35°C, read-out: Minimum Inhibiting Concentration
Protocol: as §1, §2, §3, §4, §5, §6, §7

Escherichia coli 120 = assay: as above; settings: TSA dishes, 24 h at 35°C, read-out: Minimum Inhibiting Concentration
Protocol: as §1, §2, §3, §4, §5, §6, §7

[5] = test system: Klebsiella pneumoniae ATCC 10031; assay: as above; settings: ATCC10031, TSA dishes, 24 h at 35°C, read-out: Minimum Inhibiting Concentration
Protocol: as §1, §2, §3, §4, §5, §6, §7

[6] = test system: Enterobacter cloacae OMNF 1153; assay: as above; settings: OMNF1153, TSA dishes, 24 h at 35°C, read-out: Minimum Inhibiting Concentration
Protocol: as §1, §2, §3, §4, §5, §6, §7

[7] = test system: Staphylococcus aureus ATCC 6538; assay: as above; settings: ATCC6538, TSA dishes, 24 h at 35°C, read-out: Minimum Inhibiting Concentration
Protocol: as §1, §2, §3, §4, §5, §6, §7

Escherichia coli CNUR 1 = assay: as above; settings: CNUR1, TSA dishes, 24 h at 35°C, read-out: Minimum Inhibiting Concentration
Protocol: as §1, §2, §3, §4, §5, §6, §7

[8] = test system: Pseudomonas aeruginosa CNUR 2; assay: as above; settings: CNUR2, TSA dishes, 24 h at 35°C, read-out: Minimum Inhibiting Concentration
Protocol: as §1, §2, §3, §4, §5, §6, §7

Shighella enteritidis = assay: as above; settings: TSA dishes, 24 h at 35°C, read-out: Minimum Inhibiting Concentration
Protocol: as §1, §2, §3, §4, §5, §6, §7

[9] = test system: Pseudomonas aeruginosa CNUR 4; assay: as above; settings: CNUR4, TSA dishes, 24 h at 35°C, read-out: Minimum Inhibiting Concentration
Protocol: as §1, §2, §3, §4, §5, §6, §7

[10] = test system: Providencia stuardii CNUR 5; assay: as above; settings: CNUR5, TSA dishes, 24 h at 35°C, read-out: Minimum Inhibiting Concentration
Protocol: as §1, §2, §3, §4, §5, §6, §7

Escherichia coli CNUR 8 = assay: as above; settings: CNUR8, TSA dishes, 24 h at 35°C, read-out: Minimum Inhibiting Concentration
Protocol: as §1, §2, §3, §4, §5, §6, §7

[11] = test system: Enterobacter cloacae OMNF 1174; assay: as above; settings: OMNF1174, TSA dishes, 24 h at 35°C, read-out: Minimum Inhibiting Concentration
Protocol: as §1, §2, §3, §4, §5, §6, §7

[12] = test system: Streptococcus facealis LEP Br.; assay: as above; settings: TSA dishes, 24 h at 35°C, read-out: Minimum Inhibiting Concentration
Protocol: as §1, §2, §3, §4, §5, §6, §7

[13] = test system: Staphylococcus aureus MPR 5; assay: as above; settings: MPR5, TSA dishes, 24 h at 35°C, read-out: Minimum Inhibiting Concentration
Protocol: as §1, §2, §3, §4, §5, §6, §7

Proteus vulgaris CNUR 6 = assay: as above; settings: CNUR6, TSA dishes, 24 h at 35°C, read-out: Minimum Inhibiting Concentration
Protocol: as §1, §2, §3, §4, §5, §6, §7

[14] = test system: Staphylococcus epidermidis HCF Berset C.; assay: as above; settings: TSA dishes, 24 h at 35°C, read-out: Minimum Inhibiting Concentration
Protocol: as §1, §2, §3, §4, §5, §6, §7

[15] = geometrical average of the MIC over the 5 Gram + strains, read-out: Geometrical Average
[16] = geometrical average of the MIC over the 15 Gram - strains, read-out: Geometrical Average
[17] = mean log of the MIC over the 15 Gram - strains, read-out: Log (converted)

Structure (SMILES)	MIC (Gram +; read-out: Log (converted)) [µg/mL]	MIC (Gram -; [16]) [µg/mL]	MIC (Gram -; [17]) [µg/mL]	MIC [1] [µg/mL]	MIC [2] [µg/mL]	MIC [3] [µg/mL]	MIC [4] [µg/mL]	MIC (Escherichia coli ISF 432) [µg/mL]	MIC (Escherichia coli 120) [µg/mL]	MIC [5] [µg/mL]	MIC [6] [µg/mL]	MIC [7] [µg/mL]	MIC (Escherichia coli CNUR 1) [µg/mL]	MIC [8] [µg/mL]	MIC (Shighella enteritidis) [µg/mL]	MIC [9] [µg/mL]	MIC [10] [µg/mL]	MIC (Escherichia coli CNUR 8) [µg/mL]	MIC [11] [µg/mL]	MIC [12] [µg/mL]	other results
Nc1cc2c(=O)c(C(=O)O)cn(C3CC3)c2cc1N1CCSCC1 [Compound 15]	1.32 (≈ 3.82 µM)	0.748 (≈ 2.17 µM)	0.748 (≈ 2.17 µM)	1 (≈ 2.89 µM)	0.03 (≈ 0.0868 µM)	1 (≈ 2.89 µM)	2 (≈ 5.79 µM)	0.03 (≈ 0.0868 µM)	0.12 (≈ 0.347 µM)	0.03 (≈ 0.0868 µM)	0.5 (≈ 1.45 µM)	0.5 (≈ 1.45 µM)	0.5 (≈ 1.45 µM)	16 (≈ 46.3 µM)	0.5 (≈ 1.45 µM)	128 (≈ 371 µM)	1 (≈ 2.89 µM)	0.12 (≈ 0.347 µM)	0.5 (≈ 1.45 µM)	8 (≈ 23.2 µM)	MIC (Gram +; [15]): 1.32 µg/mL; MIC [13]: 0.5 µg/mL (≈ 1.45 µM); MIC (Proteus vulgaris CNUR 6): 128 µg/mL (≈ 371 µM); MIC [14]: 2 µg/mL (≈ 5.79 µM)
CN1CCN(c2c(N)cc3c(=O)c(C(=O)O)cn(C4CC4)c3c2F)CC1 [Compound 22]	8 (≈ 22.2 µM)	0.783 (≈ 2.17 µM)	0.783 (≈ 2.17 µM)	8 (≈ 22.2 µM)	1 (≈ 2.77 µM)	4 (≈ 11.1 µM)	2 (≈ 5.55 µM)	0.06 (≈ 0.166 µM)	0.06 (≈ 0.166 µM)	0.06 (≈ 0.166 µM)	0.25 (≈ 0.694 µM)	4 (≈ 11.1 µM)	0.12 (≈ 0.333 µM)	8 (≈ 22.2 µM)	0.25 (≈ 0.694 µM)	32 (≈ 88.8 µM)	4 (≈ 11.1 µM)	0.12 (≈ 0.333 µM)	0.25 (≈ 0.694 µM)	64 (≈ 178 µM)	MIC [13]: 4 µg/mL (≈ 11.1 µM); MIC (Proteus vulgaris CNUR 6): 32 µg/mL (≈ 88.8 µM); MIC [14]: 8 µg/mL (≈ 22.2 µM)
Nc1cc2c(=O)c(C(=O)O)cn(C3CC3)c2c(F)c1N1CCSCC1 [Compound 23]	0.759 (≈ 2.09 µM)	1.04 (≈ 2.85 µM)	1.04 (≈ 2.85 µM)	1 (≈ 2.75 µM)	0.12 (≈ 0.33 µM)	0.5 (≈ 1.38 µM)	4 (≈ 11 µM)	0.06 (≈ 0.165 µM)	0.25 (≈ 0.688 µM)	0.03 (≈ 0.0826 µM)	1 (≈ 2.75 µM)	0.5 (≈ 1.38 µM)	0.5 (≈ 1.38 µM)	8 (≈ 22 µM)	4 (≈ 11 µM)	64 (≈ 176 µM)	0.5 (≈ 1.38 µM)	0.25 (≈ 0.688 µM)	1 (≈ 2.75 µM)	4 (≈ 11 µM)	MIC (Gram +; [15]): 0.758 µg/mL; MIC [13]: 0.25 µg/mL (≈ 0.688 µM); MIC (Proteus vulgaris CNUR 6): 64 µg/mL (≈ 176 µM); MIC [14]: 1 µg/mL (≈ 2.75 µM)
